Laboratory results as given in ChEMBL document CHEMBL5303304, “EUbOPEN Chemogenomics Library - IncuCyte” (2023).

Assays:
Format in all cases: toxicity, cell-based
[1] = tested on: HEK-293T; test: Incucyte cell viability with HEK293T; settings: human, 10 µM, compound concentration 10 uM
[2] = tested on: Fibroblast; test: Incucyte cell viability with human fibroblast; settings: 10 µM, compound concentration 10 uM
[3] = tested on: U2OS; test: Incucyte cell viability with U2OS; settings: human, 10 µM, compound concentration 10 uM
Also: unitless GR value; below 1 slowed growth and below 0 cell loss.

Structure (SMILES) | Growth Rate ([1]; 6 h, replicate number 2) | Growth Rate ([1]; 18 h, replicate number 2) | Growth Rate ([2]; 6 h, replicate number 1) | Growth Rate ([2]; 6 h, replicate number 2) | Growth Rate ([2]; 12 h, replicate number 1) | Growth Rate ([2]; 12 h, replicate number 2) | Growth Rate ([2]; 18 h, replicate number 1) | Growth Rate ([2]; 18 h, replicate number 2) | Growth Rate ([2]; 24 h, replicate number 2) | Growth Rate ([3]; 0 h, replicate number 1) | Growth Rate ([3]; 6 h, replicate number 1) | Growth Rate ([3]; 12 h, replicate number 1) | Growth Rate ([3]; 18 h, replicate number 1) | Growth Rate ([3]; 18 h, replicate number 2) | Growth Rate ([3]; 24 h, replicate number 2) | Growth Rate ([1]; 12 h, replicate number 2) | Growth Rate ([1]; 24 h, replicate number 1) | Growth Rate ([1]; 24 h, replicate number 2) | Growth Rate ([3]; 24 h, replicate number 1) | Growth Rate ([1]; 18 h, replicate number 1) | other results
COc1ccc(CC(=O)NC(N/C(=N/C#N)Nc2cccc3ncccc23)C(C)(C)C)cc1OC (stereo not given) | 0.89 | 0.99 | -0.31 | -1 | -1 | 0.57 | 0.6 | 0.81 | 0.59 | 0.85 | 0.08 | 0.96 | 0.98 | 0.78 | 0.82 |  |  |  |  |  | Growth Rate ([3]; 6 h, replicate number 2): 0.31; Growth Rate ([3]; 12 h, replicate number 2): 0.85
Cc1onc(-c2ccc(F)cc2)c1COc1ccc(C(=O)N2CCS(=O)(=O)CC2)cn1 [BASMISANIL] | 0.2 | 0.92 |  | -0.92 | -1 | 0.69 | -0.07 |  |  |  | 0.73 | 0.73 | 0.87 | 0.98 | 0.82 | 0.86 | 0.97 | 0.94 | 0.86 |  | Growth Rate ([2]; 0 h, replicate number 2): -0.96; Growth Rate ([3]; 6 h, replicate number 2): 0.62; Growth Rate ([3]; 12 h, replicate number 2): 0.8
OC(c1ccc(-c2ccc(CN3CCN(Cc4ccncc4)CC3)cc2)c(F)c1)(C(F)(F)F)C(F)(F)F | 0.22 | 0.23 | -0.31 | -0.55 | 0.07 | -0.38 | 0.24 | -0.18 | -0.02 | 0.44 | 0.85 | 0.84 | 0.93 | 0.78 | 0.71 | 0.08 | 0.09 | 0.29 |  | 0.02 | Growth Rate ([1]; 0 h, replicate number 2): -0.93; Growth Rate ([1]; 6 h, replicate number 1): -0.1; Growth Rate ([1]; 12 h, replicate number 1): -0.03; Growth Rate ([2]; 0 h, replicate number 1): 0.65; Growth Rate ([2]; 24 h, replicate number 1): 0.39; Growth Rate ([3]; 6 h, replicate number 2): 0.88
O=C(NCCS(=O)(=O)c1ccc(C(F)(F)F)cn1)c1ccc(Cl)cc1 | 0.83 | 0.77 |  |  | 0.61 | 0.53 | 0.55 | 0.99 | 0.73 |  |  | 0.98 | 0.96 |  |  | 0.73 |  | 0.79 | 0.93 |  | Growth Rate ([1]; 0 h, replicate number 1): -0.16; Growth Rate ([2]; 0 h, replicate number 2): -0.73; Growth Rate ([2]; 24 h, replicate number 1): 0.9
O=C(Nc1ccnc(NC(=O)C2CC2)c1)c1c(Cl)cccc1Cl |  |  |  |  |  |  |  |  |  |  | 0.46 | -0.05 | 0.81 | 0.93 | 0.84 |  |  |  | 0.98 |  | Growth Rate ([1]; 0 h, replicate number 1): -0.99; Growth Rate ([2]; 0 h, replicate number 1): -0.14; Growth Rate ([2]; 0 h, replicate number 2): -0.81
C=CC(=O)Nc1cc(Nc2nccc(-n3cc(CN(C)C)c(-c4ccccc4)n3)n2)c(OC)cc1N1CCOCC1 [LAZERTINIB] |  |  | 0.27 | -0.96 | -1 | 0.67 |  |  | 0.86 |  | -0.48 | 0.19 | 0.4 | 0.96 | 0.91 |  |  |  | 0.78 |  | Growth Rate ([1]; 0 h, replicate number 2): 0.8; Growth Rate ([1]; 6 h, replicate number 1): 0.45; Growth Rate ([3]; 0 h, replicate number 2): -0.99; Growth Rate ([3]; 6 h, replicate number 2): 0.77; Growth Rate ([3]; 12 h, replicate number 2): 0.92
O=C(O)c1ccnc(N2CC(O)(c3ccc(OCc4c(-c5c(Cl)cccc5Cl)noc4C4CC4)cc3Cl)C2)c1 [CILOFEXOR] | 0.54 | 0.85 |  | -0.03 |  |  | 0.87 |  | 0.8 |  |  |  |  |  |  | 0.68 | 0.89 | 1 |  |  | Growth Rate ([1]; 0 h, replicate number 1): 0.8; Growth Rate ([1]; 0 h, replicate number 2): 0.73; Growth Rate ([3]; 12 h, replicate number 2): 1
C[C@@H]1CC(=O)N(C2CC2)N=C1c1ccc(NC(=O)N2Cc3ccncc3C2)cc1 | 0.39 | 0.53 | 0.8 | -0.07 |  | 0.57 |  | 0.85 | 0.81 |  | 0.59 | 0.94 |  |  |  | 0.67 | 0.28 | 0.32 | 0.95 | 0.46 | Growth Rate ([1]; 0 h, replicate number 1): 0.95; Growth Rate ([1]; 0 h, replicate number 2): -0.07; Growth Rate ([1]; 6 h, replicate number 1): 0.41; Growth Rate ([1]; 12 h, replicate number 1): 0.41; Growth Rate ([2]; 0 h, replicate number 1): -0.95; Growth Rate ([2]; 0 h, replicate number 2): -0.77
O=C1CCCc2[nH]c(-c3ccnc(NCC4CC4)c3)c(Nc3ccccc3)c21 | 0.41 | 0.62 | -0.03 |  | 0.34 | 0.57 | 0.49 | 0.89 | 0.88 | 0.75 | 0.51 | 0.68 | 0.72 |  | 1 | 0.66 | 0.88 | 0.7 | 0.59 | 0.94 | Growth Rate ([2]; 0 h, replicate number 1): -1; Growth Rate ([2]; 24 h, replicate number 1): 0.45
COc1ccc(C(F)(F)F)cc1NC(=O)Nc1ccc(Oc2cc(C)nc(N)n2)c2ccccc12 |  | 0.87 |  | 0.32 |  | 0.87 |  | 0.85 | 0.89 | -1 |  |  |  |  |  | 0.92 | 0.6 | 0.81 |  | 0.55 | Growth Rate ([1]; 0 h, replicate number 2): -0.09; Growth Rate ([1]; 6 h, replicate number 1): 0.58; Growth Rate ([1]; 12 h, replicate number 1): 0.67; Growth Rate ([2]; 0 h, replicate number 1): -1; Growth Rate ([2]; 0 h, replicate number 2): -0.09
Cc1c(C(=O)Nc2cccc(C(F)(F)F)c2)cc(-c2ccccc2)n1CCCN1CCOCC1.Cl | -0.54 | 0.27 | -0.95 | 0.1 |  | 0.65 |  | 0.73 | 0.84 | 0.27 |  |  |  | 0.88 | 0.95 | 0.01 | 0.46 | 0.37 |  | 0.32 | Growth Rate ([1]; 6 h, replicate number 1): -0.17; Growth Rate ([1]; 12 h, replicate number 1): 0.11; Growth Rate ([3]; 12 h, replicate number 2): 0.89
Cc1ccc(NS(=O)(=O)c2ccc3c(c2)C2C=CCC2C(c2ccc(C(=O)O)cc2)N3)cc1C (stereo not given) |  |  | -0.66 | 0.01 | 0.86 | 0.36 | 0.83 |  | 0.72 | 0.88 | 0.79 | 0.82 | 0.87 | 0.99 | 0.91 |  |  |  | 0.93 | 0.79 | Growth Rate ([1]; 0 h, replicate number 2): -0.87; Growth Rate ([1]; 12 h, replicate number 1): 0.89; Growth Rate ([2]; 0 h, replicate number 2): 0.82; Growth Rate ([2]; 24 h, replicate number 1): 0.65
CC(C)(c1ccc(O)cc1)c1ccc(O)cc1 [BISPHENOL A] |  |  |  | -0.05 | 0.37 | 0.83 |  | 0.7 |  |  |  |  |  |  | 0.96 |  |  |  |  |  | Growth Rate ([1]; 6 h, replicate number 1): 0.82; Growth Rate ([2]; 24 h, replicate number 1): 0.57; Growth Rate ([3]; 12 h, replicate number 2): 1
O=C1NC(NC23CC4CC(CC(C4)C2)C3)=N/C1=C\c1ccc2ncsc2c1 |  | 0.09 | -1 |  |  |  |  |  |  | 0.86 |  |  |  | 0.87 | 0.52 | 0.34 | 0.08 | 0.05 | 0.82 | 0.06 | Growth Rate ([1]; 0 h, replicate number 1): -0.45; Growth Rate ([1]; 0 h, replicate number 2): -0.26; Growth Rate ([1]; 12 h, replicate number 1): 0.28; Growth Rate ([2]; 0 h, replicate number 1): 0.57; Growth Rate ([2]; 0 h, replicate number 2): 0.76; Growth Rate ([3]; 0 h, replicate number 2): -0.34
CCn1cnc2c(-c3ccc(F)c(-c4ccc(S(=O)(=O)CC)cc4OC)c3)cnnc21 [DARIGABAT] | -0.84 | -0.28 |  | -1 | 1 | -0.93 | -0.97 | -0.67 | -0.48 |  | -0.92 | -0.49 | -0.16 | -0.24 | -0.05 | -0.47 | -0.32 | -0.18 | 0.01 | -0.38 | Growth Rate ([1]; 6 h, replicate number 1): -0.79; Growth Rate ([1]; 12 h, replicate number 1): -0.63; Growth Rate ([2]; 0 h, replicate number 1): -0.83; Growth Rate ([2]; 24 h, replicate number 1): -0.69; Growth Rate ([3]; 0 h, replicate number 2): -0.95; Growth Rate ([3]; 6 h, replicate number 2): -0.7; Growth Rate ([3]; 12 h, replicate number 2): -0.46
